{"source": "ChEMBL document CHEMBL4619758", "about": "“Discovery of 3-({5-Chloro-1-[3-(methylsulfonyl)propyl]-1H-indol-2-yl}methyl)-1-(2,2,2-trifluoroethyl)-1,3-dihydro-2H-imidazo[4,5-c]pyridin-2-one (JNJ-53718678), a Potent and Orally Bioavailable Fusion Inhibitor of Respiratory Syncytial Virus” (J Med Chem, 2020)", "key": {"[1]": {"assay": "Cytotoxicity against human HeLa cells assessed as reduction in cell viability after 3 days by ATPlite assay"}, "[2]": {"assay": "Metabolic stability in human liver microsomes assessed as compound metabolized after 15 mins", "format": "ADME, Microsome", "settings": "read-out: Drug metabolism; call rule not given here"}, "[3]": {"molecular_target": "CYP3A4 (Homo sapiens, UniProt P08684)", "sequence (P08684 whole entry)": "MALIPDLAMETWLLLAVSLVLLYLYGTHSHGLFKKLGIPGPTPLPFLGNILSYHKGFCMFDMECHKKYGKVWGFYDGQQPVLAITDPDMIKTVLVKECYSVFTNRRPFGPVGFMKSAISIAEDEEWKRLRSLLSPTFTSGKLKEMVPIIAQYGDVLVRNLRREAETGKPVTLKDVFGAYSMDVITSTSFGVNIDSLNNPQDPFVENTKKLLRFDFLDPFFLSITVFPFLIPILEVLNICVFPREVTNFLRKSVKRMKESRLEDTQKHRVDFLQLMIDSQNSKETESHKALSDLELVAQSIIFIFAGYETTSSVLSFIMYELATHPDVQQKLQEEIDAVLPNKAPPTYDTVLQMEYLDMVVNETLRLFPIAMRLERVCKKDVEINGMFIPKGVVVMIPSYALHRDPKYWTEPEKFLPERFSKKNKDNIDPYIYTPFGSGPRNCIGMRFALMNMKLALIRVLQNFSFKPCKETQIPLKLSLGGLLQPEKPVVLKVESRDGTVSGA", "assay": "Time-dependent inhibition of CYP3A4 in human liver microsomes assessed as ratio of IC50 in presence and absence of NADPH using testosterone as substrate", "format": "ADME", "settings": "probe testosterone, read-out: Ratio IC50"}, "[4]": {"assay": "Clearance in Sprague-Dawley rat at 2 mg/kg, iv administered as single dose", "format": "ADME, organism-based", "settings": "in vivo"}, "[5]": {"assay": "Volume of distribution at steady state in Sprague-Dawley rat at 2 mg/kg, iv administered as single dose", "format": "ADME, organism-based", "settings": "in vivo, read-out: Vdss"}, "[6]": {"assay": "Cmax in Sprague-Dawley rat at 10 mg/kg, po administered as single dose", "format": "ADME, organism-based", "parameters": "dose 10 mg/kg, route oral", "settings": "in vivo"}, "[7]": {"assay": "AUC in Sprague-Dawley rat at 10 mg/kg, po administered as single dose", "format": "ADME, organism-based", "settings": "in vivo"}, "[8]": {"assay": "Absolute oral bioavailability in Sprague-Dawley rat at 10 mg/kg administered as single dose", "format": "ADME, organism-based", "settings": "in vivo"}, "[9]": {"assay": "Ratio of AUC (0 to last) in lung to plasma of Sprague-Dawley rat at 10 mg/kg, po administered as single dose", "format": "ADME, organism-based", "settings": "lung and plasma, read-out: Ratio AUC"}, "[10]": {"assay": "Metabolic stability in rat liver microsomes assessed as compound metabolized after 15 mins", "format": "ADME, Microsome", "settings": "read-out: Drug metabolism"}, "[11]": {"assay": "Protein binding in human plasma assessed as unbound fraction", "format": "ADME, cell-free"}, "[12]": {"assay": "Clearance in Sprague-Dawley rat at 2 mg/kg, iv administered as single dose relative to liver blood flow", "format": "ADME, organism-based", "settings": "in vivo"}, "[13]": {"assay": "Aqueous solubility of the compound", "format": "physicochemical", "settings": "buffer"}, "[14]": {"assay": "Metabolic stability in dog liver microsomes assessed as compound metabolized after 15 mins", "format": "ADME, Canis lupus familiaris, Microsome", "settings": "read-out: Drug metabolism"}, "[15]": {"assay": "Clearance in Sprague-Dawley rat plasma at 2.5 mg/kg, iv", "format": "ADME, organism-based"}, "[16]": {"assay": "Ratio of AUC (0 to last) in lung to plasma of Sprague-Dawley rat at 2.5 mg/kg, iv or 10 mg/kg, po", "format": "ADME, organism-based", "settings": "lung and plasma, read-out: Ratio AUC"}, "[17]": {"assay": "Oral bioavailability in Sprague-Dawley rat at 10 mg/kg", "format": "ADME, organism-based", "settings": "in vivo"}, "[18]": {"assay": "Clearance in dog plasma at 1 mg/kg, iv", "format": "ADME, organism-based, Canis lupus familiaris"}, "[19]": {"test_system": "Respiratory syncytial virus", "assay": "Antiviral activity against RSV Long infected in po dosed cotton rat model assessed as reduction in viral titer in broncho alveolar lavage fluid pretreated for 1 hr followed by viral infection measured after 4 days by plaque reduction assay", "format": "functional, organism-based", "settings": "for EC50: human respiratory syncytial virus"}, "[20]": {"test_system": "Respiratory syncytial virus", "assay": "Antiviral activity against RSV Long infected in po dosed cotton rat model assessed as reduction in viral titer in lung lavage fluid pretreated for 1 hr followed by viral infection measured after 4 days by plaque reduction assay", "format": "functional, organism-based", "settings": "for EC50: human respiratory syncytial virus"}, "[21]": {"molecular_target": "Cytochrome P450 3A4 (Homo sapiens, UniProt P08684)", "sequence (P08684 whole entry)": "as above", "assay": "Time-dependent inhibition of CYP3A4 in human liver microsomes using testosterone as substrate", "format": "ADME"}, "[22]": {"assay": "Oral bioavailability in dog at 5 mg/kg", "format": "ADME, organism-based, Canis lupus familiaris", "settings": "in vivo"}, "[23]": {"assay": "Clearance in dog plasma at 1 mg/kg, iv relative to liver blood flow", "format": "ADME, organism-based, Canis lupus familiaris", "settings": "in vivo"}}, "data": [{"smiles": "CS(=O)(=O)CCCn1c(Cn2c(=O)n(C3CC3)c3ccncc32)cc2cc(Cl)ccc21", "values": [{"measurement": "CC50 at 72 h", "setting": "[1]", "result": "> 50", "unit": "µM"}, {"measurement": "metabolised at 0.25 h", "setting": "[2]", "result": 18, "unit": "%"}, {"measurement": "IC50 shift", "setting": "[3]", "result": 18}]}, {"smiles": "O=c1n(Cc2cc3cnccc3n2CCCC(F)(F)F)c2cnccc2n1C1CC1", "values": [{"measurement": "CC50 at 72 h", "setting": "[1]", "result": "> 50", "unit": "µM"}, {"measurement": "metabolised at 0.25 h", "setting": "[2]", "result": 21, "unit": "%"}, {"measurement": "clearance", "setting": "[4]", "result": 75, "unit": "mL/min/kg"}, {"measurement": "Vd", "setting": "[5]", "result": 3.3, "unit": "L/kg"}, {"measurement": "Cmax", "setting": "[6]", "result": 532, "unit": "ng/mL"}, {"measurement": "AUC", "setting": "[7]", "result": 545, "unit": "ng·h/mL"}, {"measurement": "bioavailability", "setting": "[8]", "result": 28, "unit": "%"}, {"measurement": "Kp", "setting": "[9]", "result": 11}, {"measurement": "metabolised at 0.25 h", "setting": "[10]", "result": 80, "unit": "%"}, {"measurement": "fraction unbound", "setting": "[11]", "result": 0.472}, {"measurement": "CL", "setting": "[12]", "result": "> 100", "unit": "%"}]}, {"smiles": "CS(=O)(=O)c1ccc(-n2c(=O)n(Cc3cc4cc(Cl)ccc4n3CCCC#N)c3cnccc32)cc1", "values": [{"measurement": "CC50 at 72 h", "setting": "[1]", "result": "> 50", "unit": "µM"}, {"measurement": "metabolised at 0.25 h", "setting": "[2]", "result": 9, "unit": "%"}, {"measurement": "solubility", "setting": "[13]", "result": "Insoluble"}]}, {"smiles": "CS(=O)(=O)CCCn1c(Cn2c(=O)n(CC(F)(F)F)c3ccncc32)cc2cc(Cl)ccc21", "note": "[RILEMATOVIR]", "values": [{"measurement": "CC50 at 72 h", "setting": "[1]", "result": "> 50", "unit": "µM"}, {"measurement": "metabolised at 0.25 h", "setting": "[2]", "result": 1, "unit": "%"}, {"measurement": "metabolised at 0.25 h", "setting": "[10]", "result": 60, "unit": "%"}, {"measurement": "metabolised at 0.25 h", "setting": "[14]", "result": 28, "unit": "%"}, {"measurement": "clearance", "setting": "[15]", "result": 65, "unit": "mL/min/kg"}, {"measurement": "Kp", "setting": "[16]", "result": 3.5}, {"measurement": "bioavailability", "setting": "[17]", "result": 42, "unit": "%"}, {"measurement": "clearance", "setting": "[18]", "result": 8.5, "unit": "mL/min/kg"}, {"measurement": "fraction unbound", "setting": "[11]", "result": 0.06}, {"measurement": "Activity", "setting": "[19]", "result": "Dose-dependent effect"}, {"measurement": "EC50", "setting": "[19]", "result": 0.075, "unit": "µg/mL"}, {"measurement": "Activity", "setting": "[20]", "result": "Dose-dependent effect"}, {"measurement": "EC50", "setting": "[20]", "result": 0.081, "unit": "µg/mL"}, {"measurement": "TDI", "setting": "[21]", "result": "Not Active"}]}, {"smiles": "COc1ccc(-n2c(=O)n(Cc3cc4cc(Cl)ccc4n3CCCC#N)c3cnccc32)cc1OC", "values": [{"measurement": "CC50 at 72 h", "setting": "[1]", "result": "> 50", "unit": "µM"}, {"measurement": "metabolised at 0.25 h", "setting": "[2]", "result": 19, "unit": "%"}, {"measurement": "metabolised at 0.25 h", "setting": "[10]", "result": 74, "unit": "%"}, {"measurement": "metabolised at 0.25 h", "setting": "[14]", "result": 56, "unit": "%"}, {"measurement": "clearance", "setting": "[15]", "result": 31.7, "unit": "mL/min/kg"}, {"measurement": "Kp", "setting": "[16]", "result": 2.5}, {"measurement": "bioavailability", "setting": "[17]", "result": 32, "unit": "%"}, {"measurement": "clearance", "setting": "[18]", "result": 14.3, "unit": "mL/min/kg"}, {"measurement": "bioavailability", "setting": "[22]", "result": 26, "unit": "%"}, {"measurement": "fraction unbound", "setting": "[11]", "result": 0.008}, {"measurement": "Activity", "setting": "[19]", "result": "Dose-dependent effect"}, {"measurement": "EC50", "setting": "[19]", "result": 0.18, "unit": "µg/mL"}, {"measurement": "Activity", "setting": "[20]", "result": "Dose-dependent effect"}, {"measurement": "EC50", "setting": "[20]", "result": 0.157, "unit": "µg/mL"}, {"measurement": "CL", "setting": "[23]", "result": 50, "unit": "%"}]}, {"smiles": "COc1ccc(-n2c(=O)n(Cc3cc4cc(Cl)ccc4n3CCCC#N)c3cnccc32)cc1", "values": [{"measurement": "CC50 at 72 h", "setting": "[1]", "result": "> 50", "unit": "µM"}, {"measurement": "metabolised at 0.25 h", "setting": "[2]", "result": 20, "unit": "%"}, {"measurement": "metabolised at 0.25 h", "setting": "[10]", "result": 40, "unit": "%"}, {"measurement": "metabolised at 0.25 h", "setting": "[14]", "result": 96, "unit": "%"}, {"measurement": "clearance", "setting": "[15]", "result": 16.2, "unit": "mL/min/kg"}, {"measurement": "Kp", "setting": "[16]", "result": 1.3}, {"measurement": "bioavailability", "setting": "[17]", "result": 86, "unit": "%"}, {"measurement": "clearance", "setting": "[18]", "result": 24.8, "unit": "mL/min/kg"}, {"measurement": "bioavailability", "setting": "[22]", "result": 9, "unit": "%"}, {"measurement": "fraction unbound", "setting": "[11]", "result": 0.005}, {"measurement": "Activity", "setting": "[19]", "result": "Dose-dependent effect"}, {"measurement": "EC50", "setting": "[19]", "result": 0.499, "unit": "µg/mL"}, {"measurement": "Activity", "setting": "[20]", "result": "Dose-dependent effect"}, {"measurement": "EC50", "setting": "[20]", "result": 0.121, "unit": "µg/mL"}, {"measurement": "CL", "setting": "[23]", "result": 90, "unit": "%"}]}]}
